Results on eight compounds are retold here after US7435740B2 (King Pharmaceuticals Research and Development, Inc., priority 2005, dated 2008).

Where two headings read alike, the source gives them in different places.

As usually defined, the IC50 is the concentration needed to halve the response being measured.

Assay [1] concerns the target T1, human recombinant A3 adenosine receptors (Homo sapiens, UniProt P0DMS8).
T1 construct: expressed in transfected cells; host or cells: CHO cells (membranes)
T1 sequence (P0DMS8 1-318): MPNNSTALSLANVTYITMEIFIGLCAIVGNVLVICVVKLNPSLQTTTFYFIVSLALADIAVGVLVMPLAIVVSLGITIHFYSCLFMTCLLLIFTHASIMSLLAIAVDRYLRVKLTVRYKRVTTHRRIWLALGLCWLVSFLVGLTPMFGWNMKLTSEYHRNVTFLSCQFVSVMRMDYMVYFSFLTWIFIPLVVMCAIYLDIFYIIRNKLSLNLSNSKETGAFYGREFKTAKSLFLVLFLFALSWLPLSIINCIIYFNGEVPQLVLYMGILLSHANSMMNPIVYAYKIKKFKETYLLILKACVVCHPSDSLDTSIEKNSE
The assay is described as follows: [3H]-MRE 3008F20 binding to hA3 receptors expressed in CHO cells. The conditions noted are these: for Ki: CHO cell membranes, 1 nM [3H]-MRE 3008F20, geometric mean, confidence limits in the line below, read-out: [3H] MRE3008F20 binding to hA3 receptors expressed in CHO cells Ki; for [3H] MRE3008F20 binding to hA3 receptors, percentage in parentheses: percentage printed below the > bound, meaning not defined in the patent; for A3 receptor affinity (in words) / selectivity versus the adenosine hA1 subtype (in words): qualitative statement; for selectivity versus the adenosine hA1 subtype (in words): hA3 versus hA1.
Protocol: (§1) For membrane preparation the culture medium was removed and the cells were washed with PBS and scraped off T75 flasks in ice-cold hypotonic buffer (5 mM Tris HCl, 2 mM EDTA, pH 7.4).
(§2) The cell suspension was homogenized with Polytron and the homogenate was spun for 10 min at 1,000×g. The supernatant was then centrifuged for 30 min at 100,000×g. […] Then the suspension was frozen at −80° C.
Non-specific binding was defined as binding in the presence of 1 μM MRE 3008F20 and was about 30% of total binding.
(§3) Ki=IC50/(1+[C*]/KD*), where [C*] is the concentration of the radioligand and KD* its dissociation constant.

In assay [2] the target is T2, human recombinant A1 adenosine receptor (Homo sapiens, UniProt P30542).
T2 sequence (P30542 1-326): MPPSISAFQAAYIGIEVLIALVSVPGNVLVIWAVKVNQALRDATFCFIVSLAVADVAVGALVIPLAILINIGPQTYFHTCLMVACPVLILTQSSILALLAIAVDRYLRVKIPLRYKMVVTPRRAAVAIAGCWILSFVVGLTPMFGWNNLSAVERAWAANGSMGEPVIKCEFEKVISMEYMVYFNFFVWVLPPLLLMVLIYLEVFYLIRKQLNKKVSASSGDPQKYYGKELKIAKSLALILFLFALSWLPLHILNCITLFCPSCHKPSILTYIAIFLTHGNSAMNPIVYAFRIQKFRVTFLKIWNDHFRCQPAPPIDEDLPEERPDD
The assay is described as follows: [3H]-DPCPX binding to human A1 adenosine receptor expressed in CHO cells. The conditions noted are these: for [3H] DPCPX binding to hA1, percentage in parentheses: percentage given after the > bound, meaning not defined in the patent.
Protocol: as §1, §2, §3

The target of assay [3] is T3, human recombinant A2B adenosine receptor (Homo sapiens, UniProt P29275).
T3 sequence (P29275 1-332): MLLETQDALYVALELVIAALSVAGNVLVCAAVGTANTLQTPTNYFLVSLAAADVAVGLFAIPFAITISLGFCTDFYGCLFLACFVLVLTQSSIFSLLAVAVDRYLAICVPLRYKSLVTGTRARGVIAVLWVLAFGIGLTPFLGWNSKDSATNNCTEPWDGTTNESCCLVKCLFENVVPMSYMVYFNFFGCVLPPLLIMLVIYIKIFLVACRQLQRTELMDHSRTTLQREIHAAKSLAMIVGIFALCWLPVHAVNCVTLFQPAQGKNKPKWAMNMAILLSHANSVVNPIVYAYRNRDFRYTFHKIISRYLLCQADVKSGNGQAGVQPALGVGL
The assay is described as follows: cAMP assay in CHO hA2B. The conditions noted are these: for IC50: confidence limits in parentheses, read-out: cAMP assay in CHO hA22B IC50; for cAMP assay in CHO hA22B, percentage in parentheses: percentage given after the > bound, meaning not defined in the patent. The format is cell-based. In general terms: Cyclic AMP is a second messenger, typically raised through Gs and lowered through Gi signalling.

For assay [4], the target named is human recombinant A2A adenosine receptors (Homo sapiens, UniProt P29274). Kind of assay: Radioligand binding to hA2A receptors expressed in CHO cells. The conditions noted are these: for [3H] ZM 241385 binding to hA2A receptors, percentage in parentheses: percentage given after the > bound, meaning not defined in the patent.
human recombinant A2A adenosine receptors, sequence (P29274 whole entry): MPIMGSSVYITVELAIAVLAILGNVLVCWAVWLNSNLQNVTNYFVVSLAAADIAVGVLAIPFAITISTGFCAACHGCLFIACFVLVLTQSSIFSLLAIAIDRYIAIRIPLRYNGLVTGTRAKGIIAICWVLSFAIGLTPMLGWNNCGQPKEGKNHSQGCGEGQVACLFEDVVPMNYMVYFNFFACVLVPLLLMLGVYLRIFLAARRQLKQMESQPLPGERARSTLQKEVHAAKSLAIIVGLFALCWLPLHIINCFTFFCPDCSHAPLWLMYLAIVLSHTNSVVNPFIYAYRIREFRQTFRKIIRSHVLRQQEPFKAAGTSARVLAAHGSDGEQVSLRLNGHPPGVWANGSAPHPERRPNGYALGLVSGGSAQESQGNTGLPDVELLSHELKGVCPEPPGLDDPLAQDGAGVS
Protocol: as §1, §2, §3
The mark [5] stands for this setting: read-out: [3H] DPCPX binding to hA1, CHO cell membranes, 1 nM [3H]-DPCPX, geometric mean with confidence limits in parentheses.

In the case of `CCCn1c(=O)c2c(nc3n2CC(C)=C3)n(Cc2ccccc2)c1=O` [Compound 17, 1-Benzyl-7-methyl-3-propyl-1H-pyrrolo[1,2-f]purine-2,4(3H,6H)-dione], the Ki is 8 nM in assay [1], 3030 nM in assay [2] and greater than 5000 nM in assay [4]. In addition, the IC50 in assay [3] amounted to 400 nM. In assay [4], the “[3H] ZM 241385 binding to hA2A receptors, percentage in parentheses” value is reported as 99%.

Regarding `CCCn1c(=O)c2c(nc3n2CC(c2ccccc2)=NN3CCO)n(Cc2ccccc2)c1=O` [Compound 7, 8-Benzyl-1-(2-hydroxy-ethyl)-3-phenyl-6-propyl-1,4-dihydro-8H-1,2,4a,6,8,9-hexaaza-fluorene-5,7-dione], in assay [1], the Ki is greater than 1000 nM and the “[3H] MRE3008F20 binding to hA3 receptors, percentage in parentheses” value is “(99%)”. Moreover, in assay [2], the Ki was greater than 1000 nM and the “[3H] DPCPX binding to hA1, percentage in parentheses” value stood at 91%. In assay [3], the concentration for half-maximal inhibition (IC50) was greater than 1000 nM and the “cAMP assay in CHO hA22B, percentage in parentheses” value (shortened to “cAMP assay in CHO hA22B, percentage”) was found to be 83%. For the same compound, in assay [4], the Ki was greater than 1000 nM and the “[3H] ZM 241385 binding to hA2A receptors, percentage in parentheses” value came to 99%.

Consider `CCCn1c(=O)c2c(nc3n2CC(c2ccccc2)=NN3C)n(Cc2ccccc2)c1=O` [Compound 6, 8-Benzyl-1-methyl-3-phenyl-6-propyl-1,4-dihydro-8H-1,2,4a,6,8,9-hexaaza-fluorene-5,7-dione], for which, in assay [1], the Ki was greater than 1000 nM and the “[3H] MRE3008F20 binding to hA3 receptors, percentage in parentheses” value is “(99%)”. Further, in assay [2], the Ki is greater than 1000 nM and the “[3H] DPCPX binding to hA1, percentage in parentheses” value was determined as 79%. In assay [3], the concentration for half-maximal inhibition (IC50) is greater than 1000 nM and the “cAMP assay in CHO hA22B, percentage” value was determined as 94%. Also, in assay [4], the Ki is greater than 1000 nM and the “[3H] ZM 241385 binding to hA2A receptors, percentage in parentheses” value was 99%.

For the compound `CC(C)Cn1c(=O)c2c(nc3[nH]c(-c4ccccc4)cn32)n(CC(C)C)c1=O` [Compound 9, 1,3-Diisobutyl-7-phenyl-1H-imidazo[1,2-f]purine-2,4(3H,8H)-dione], in assay [1], the Ki is 144 nM, the “A3 receptor affinity (in words)” value is “substantial maintenance of A3 receptor affinity” and the “selectivity versus the adenosine hA1 subtype (in words)” value was “significant loss of selectivity”. In addition, the Ki in assay [2] (setting [5]) is 476 nM. In addition, in assay [3], the IC50 was greater than 1000 nM and the “cAMP assay in CHO hA22B, percentage” value is listed as 99%. In assay [4], the Ki is greater than 1000 nM and the “[3H] ZM 241385 binding to hA2A receptors, percentage in parentheses” value was found to be 86%.

On to `CCCn1c(=O)c2c(nc3n2CC(CC)=C3)n(Cc2ccccc2)c1=O` [Compound 18, 1-Benzyl-7-ethyl-3-propyl-1H-pyrrolo[1,2-f]purine-2,4(3H,6H)-dione], for which the “cAMP assay in CHO hA22B, percentage” value in assay [3] turned out to be 71%.

With `CCCn1c(=O)c2c(nc3[nH]c(-c4ccccc4)cn32)n(CCC)c1=O` [Compound 8, 7-Phenyl-1,3-dipropyl-1H-imidazo[1,2-f]purine-2,4(3H,8H)-dione], in assay [1], the Ki came to 99 nM, the “A3 receptor affinity (in words)” value was “substantial maintenance of A3 receptor affinity” and the “selectivity versus the adenosine hA1 subtype (in words)” value was “significant loss of selectivity”. The Ki in assay [2] (setting [5]) turned out to be 373 nM. Besides, in assay [3], the IC50 is greater than 1000 nM and the “cAMP assay in CHO hA22B, percentage” value is 61%. Also, in assay [4], the Ki was greater than 1000 nM and the “[3H] ZM 241385 binding to hA2A receptors, percentage in parentheses” value was 78%.

`CCCn1c(=O)c2c(nc3n2CC(c2ccccc2)=C3)n(Cc2ccccc2)c1=O` [Compound 1, 1-Benzyl-7-phenyl-3-propyl-1H-pyrrolo[1,2-f]purine-2,4(3H,6H)-dione]: the Ki in assay [1] was determined as 200 nM. In addition, the “[3H] DPCPX binding to hA1, percentage in parentheses” value in assay [2] amounted to 75%. In addition, in assay [4], the “[3H] ZM 241385 binding to hA2A receptors, percentage in parentheses” value is on record as 99%.

With `CCCn1c(=O)c2c(nc3n2C(C)C(C)=C3)n(Cc2ccccc2)c1=O` (stereo not drawn) [Compound 19, 1-Benzyl-6,7-dimethyl-3-propyl-1H-pyrrolo[1,2-f]purine-2,4(3H,6H)-dione], in assay [1], the Ki turned out to be 80 nM. Further, in assay [2], the “[3H] DPCPX binding to hA1, percentage in parentheses” value was determined as 65%. Further, the “cAMP assay in CHO hA22B, percentage” value in assay [3] came out at 60%. In addition, the “[3H] ZM 241385 binding to hA2A receptors, percentage in parentheses” value in assay [4] came to 91%.
